Reference: patent US11141410B2 (MERCK SHARP & DOHME CORP., priority 2015, dated 2021)

What was measured:
[1] = tested on: MRSA COL (MB5393); test: TarO Inhibitor/β-Lactam Synergy Assay (growth, OD600); type: cell-based, Staphylococcus aureus; settings: for MITC95 TarO inhibitor + 4 μg/mL IPM; Bacteria: SA_MB5393: in combination with 4 μg/mL imipenem (IPM); for MITC95 TarO inhibitor + 8 μg/mL DCX; Bacteria: SA_MB5393: in combination with 8 μg/mL dicloxacillin (DCX)
Method: The TarO inhibitor/β-lactam synergy assay was performed to measure the re-sensitization of methicillin-resistant Staphylococci bacteria (MB5393: MRSA COL) to β-lactam antibiotics by TarO inhibitors. MRSA COL is a hospital-acquired penicillinase-negative clinically isolated strain commonly used in Staphylococcus aureus studies and is fully resistant to the antimicrobial bioactivity of β-lactam antibiotics, including but not limited to imipenem and dicloxacillin. […] MRSA COL is fully refractory to β-lactam antibiotic effect at the current clinical breakpoint concentrations and as such MRSA COL is fully viable at these concentrations.
The β-lactam antibiotic concentration was fixed at the clinical breakpoint (imipenem 4 μg/ml or dicloxacillin 8 μg/ml) and the TarO inhibitors were titrated by 2 fold starting from the highest concentration of 200 μM with final DMSO concentration of 2% in the assay. 5×10^5 colony forming unit of MRSA COL in cation-adjusted Mueller Hinton broth (CAMHB) was then mixed and the assay plate was incubated for 20 hours at 37° C. without shaking. After 20 hours, the optical density at 600 nm (OD600) was read for all wells to determine relative growth of MRSA COL.

[2] = tested on: MRSA COL (MB5393); test: as above; type: cell-based; settings: Staphylococcus aureus, TarO inhibitor alone, >200 μM = 95% growth inhibition not achieved, 20 hours at 37° C., read-out: MITC95 TarO inhibitor alone, Bacteria: SA_MB5393

Compound	MITC95 TarO inhibitor + 4 μg/mL IPM; Bacteria: SA_MB5393 [1] [µM]	MITC95 TarO inhibitor + 8 μg/mL DCX; Bacteria: SA_MB5393 [1] [µM]	IC95 [2] [µM]	MITC95 concentration of β-lactam antibiotic alone ([1]; β-lactam alone, MRSA COL) [µg/mL]
C[C@@H]1CN(C(=O)NCc2cncc3ccccc23)C(=O)OC1c1cc(C(F)(F)F)cc(C(F)(F)F)c1 (stereo in doubt) [Example 93, (5R,6S)-6-(3,5-bis(trifluoromethyl)phenyl)-N-(isoquinolin-4-ylmethyl)-5-methyl-2-oxo-1,3-oxazinane-3-carboxamide]	0.13	0.50	> 200	
C[C@H]1[C@@H](c2cc(C(F)(F)F)cc(C(F)(F)F)c2)OC(=O)N1C(=O)NCc1cncc2ccccc12 [Example 1, (4S,5R)-5-(3,5-bis(trifluoromethyl)phenyl)-N-(isoquinolin-4-ylmethyl)-4-methyl-2-oxooxazolidine-3-carboxamide]	0.03	0.39	> 200	
C[C@H]1[C@@H](c2cc(C(F)(F)F)cc(C(F)(F)F)c2)OC(=O)N1C(=O)NCc1cccc2ccnn12 [Example 2, (4S,5R)-5-[3,5-bis(trifluoromethyl)phenyl]-4-methyl-2-oxo-N-(pyrazolo[1,5-a]pyridin-7-ylmethyl)-1,3-oxazolidine-3-carboxamide]	0.01	0.21	> 200	
C[C@H]1[C@@H](c2cc(F)cc(C(F)(F)F)c2)OC(=O)N1C(=O)NCc1ccccc1[N+](=O)[O-] [Example 3, (4S,5R)-5-[3-fluoro-5-(trifluoromethyl)phenyl]-4-methyl-N-(2-nitrobenzyl)-2-oxo-1,3-oxazolidine-3-carboxamide]	0.33	2.60	> 200	
C[C@H]1[C@@H](c2cc(C(F)(F)F)cc(C(F)(F)F)c2)OC(=O)N1C(=O)NCc1cncc2cccnc12 [Example 4, (4S,5R)-5-[3,5-bis(trifluoromethyl)phenyl]-4-methyl-N-(1,6-naphthyridin-8-ylmethyl)-2-oxo-1,3-oxazolidine-3-carboxamide]	0.13	0.39	> 200	
C[C@H]1[C@@H](c2cc(F)cc(C(F)(F)F)c2)OC(=O)N1C(=O)NCc1ccccc1OC(F)F [Example 5, (4S,5R)-N-[2-(difluoromethoxy)benzyl]-5-[3-fluoro-5-(trifluoromethyl)phenyl]-4-methyl-2-oxo-1,3-oxazolidine-3-carboxamide]	0.09	0.71	> 200	
C[C@H]1[C@@H](c2cc(F)cc(C(F)(F)F)c2)OC(=O)N1C(=O)NCc1cccc2ccccc12 [Example 6, (4S,5R)-5-[3-fluoro-5-(trifluoromethyl)phenyl]-4-methyl-N-(naphthalen-1-ylmethyl)-2-oxo-1,3-oxazolidine-3-carboxamide]	0.01	0.02	> 200	
C[C@H]1[C@@H](c2cc(F)cc(C(F)(F)F)c2)OC(=O)N1C(=O)NCc1ccccc1C(F)(F)F [Example 7, (4S,5R)-5-[3-fluoro-5-(trifluoromethyl)phenyl]-4-methyl-2-oxo-N-[2-(trifluoromethyl)benzyl]-1,3-oxazolidine-3-carboxamide]	0.05	0.33	> 200	
COc1ccccc1CNC(=O)N1C(=O)O[C@H](c2cc(F)cc(C(F)(F)F)c2)[C@@H]1C [Example 8, (4S,5R)-5-[3-fluoro-5-(trifluoromethyl)phenyl]-N-(2-methoxybenzyl)-4-methyl-2-oxo-1,3-oxazolidine-3-carboxamide]	0.13	1.32	> 200	
C[C@H]1[C@@H](c2cc(F)cc(C(F)(F)F)c2)OC(=O)N1C(=O)NCc1cccc(N(C)C)c1 [Example 9, (4S,5R)-N-[3-(dimethylamino)benzyl]-5-[3-fluoro-5-(trifluoromethyl)phenyl]-4-methyl-2-oxo-1,3-oxazolidine-3-carboxamide]	0.22	1.65	> 200	
C[C@H]1[C@@H](c2cc(C(F)(F)F)cc(C(F)(F)F)c2)OC(=O)N1C(=O)NCc1cccc2nccnc12 [Example 10, (4S,5R)-5-[3,5-bis (trifluoromethyl)phenyl]-4-methyl-2-oxo-N-(quinoxalin-5-ylmethyl)-1,3-oxazolidine-3-carboxamide]	0.06	0.37	> 200	
C[C@H]1[C@@H](c2cc(F)cc(C(F)(F)F)c2)OC(=O)N1C(=O)NCc1cccc2c1OCCO2 [Example 11, (4S,5R)-N-(2,3-dihydro-1,4-benzodioxin-5-ylmethyl)-5-[3-fluoro-5-(trifluoromethyl)phenyl]-4-methyl-2-oxo-1,3-oxazolidine-3-carboxamide]	0.13	1.42	> 200	
C[C@H]1[C@@H](c2cc(F)cc(C(F)(F)F)c2)OC(=O)N1C(=O)NCc1cccc2cc[nH]c12 [Example 12, (4S,5R)-5-[3-fluoro-5-(trifluoromethyl)phenyl]-N-(1H-indol-7-ylmethyl)-4-methyl-2-oxo-1,3-oxazolidine-3-carboxamide]	0.25	1.56	> 200	
CCOc1ccccc1CNC(=O)N1C(=O)O[C@H](c2cc(F)cc(C(F)(F)F)c2)[C@@H]1C [Example 13, (4S,5R)-N-(2-ethoxybenzyl)-5-[3-fluoro-5-(trifluoromethyl)phenyl]-4-methyl-2-oxo-1,3-oxazolidine-3-carboxamide]	0.06	0.35	> 200	
C[C@H]1[C@@H](c2cc(F)cc(C(F)(F)F)c2)OC(=O)N1C(=O)NCc1nccc2sccc12 [Example 14, (4S,5R)-5-[3-fluoro-5-(trifluoromethyl)phenyl]-4-methyl-2-oxo-N-(thieno[3,2-c]pyridin-4-ylmethyl)-1,3-oxazolidine-3-carboxamide]	0.49	5.63	> 200	
C[C@H]1[C@@H](c2cccc(C(F)(F)F)c2)OC(=O)N1C(=O)NCc1cncc2cccnc12 [Example 15, (4S,5R)-4-methyl-N-(1,6-naphthyridin-8-ylmethyl)-2-oxo-5-[3-(trifluoromethyl)phenyl]-1,3-oxazolidine-3-carboxamide]	0.98	4.69	> 200	
Cc1ccccc1CNC(=O)N1C(=O)O[C@H](c2cc(F)cc(C(F)(F)F)c2)[C@@H]1C [Example 16, (4S,5R)-5-[3-fluoro-5-(trifluoromethyl)phenyl]-4-methyl-N-(2-methylbenzyl)-2-oxo-1,3-oxazolidine-3-carboxamide]	0.38	3.52	> 200	
C[C@H]1[C@@H](c2cc(C(F)(F)F)cc(C(F)(F)F)c2)OC(=O)N1C(=O)NCc1nccc2ccoc12 [Example 17, (4S,5R)-5-[3,5-bis(trifluoromethyl)phenyl]-N-(furo[2,3-c]pyridin-7-ylmethyl)-4-methyl-2-oxo-1,3-oxazolidine-3-carboxamide]	0.39	4.30	> 200	
C[C@H]1[C@@H](c2cc(C(F)(F)F)cc(C(F)(F)F)c2)OC(=O)N1C(=O)NCC1CCCc2ccccc21 (stereo partly drawn) [Example 19, (4S,5R)-5-[3,5-bis(trifluoromethyl)phenyl]-4-methyl-2-oxo-N-(1,2,3,4-tetrahydronaphthalen-1-ylmethyl)-1,3-oxazolidine-3-carboxamide]	0.15	1.45	> 200	
Cc1onc(-c2c(Cl)cccc2Cl)c1C(=O)N[C@@H]1C(=O)N2[C@@H]1SC(C)(C)[C@@H]2C(=O)O [dicloxacillin, reference compound]				128
